Patent publication US20100331315A1, “RHODANINES AND RELATED HETEROCYCLES AS KINASE INHIBITORS” (priority 2009, published 2010)
pIC50: −log10 of the molar value. Read-outs that look alike come from different tables or passages of the source.

Assays:
[1] = system: HCT-116 human colorectal carcinoma cells; assay: Alamar Blue cell proliferation assay, HCT-116; assay type: cell-based; settings: HCT-116, Table 1, read-out: AB: HCT-116 IC50
Description: (§1) A representative cell-proliferation assay protocol using Alamar Blue dye (stored at 4° C., use 20 ul per well) is described hereafter.
(§2) a. Split and trypsinize cells.
(§3) b. Count cells using hemocytometer.
(§4) c. Plate 4,000-5,000 cells per well in 100 μl of medium and seed into a 96-well plate according to the following plate layout. Add cell culture medium only to wells B10 to B12. Wells B1 to B9 have cells but no compound added.
(§5) d. Add 100 μl of 2× drug dilution to each well in a concentration shown in the plate layout above. At the same time, add 100 μl of media into the control wells (wells B10 to B12). Total volume is 200 μl/well.
(§6) e. Incubate four (4) days at 37° C., 5% CO2 in a humidified incubator.
(§7) f. Add 20 μl Alamar Blue reagent to each well.
(§8) g. Incubate for four (4) hours at 37° C., 5% CO2 in a humidified incubator.
(§9) h. Record fluorescence at an excitation wavelength of 544 nm and emission wavelength of 590 nm using a microplate reader.
(§10) In the assays, cells are cultured with a test compound for approximately four days, the dye is then added to the cells and fluorescence of […] dye is detected after approximately four hours. Different types of cells can be utilized in the assays (e.g., HCT-116 human colorectal carcinoma cells, PC-3 human prostatic cancer cells and MiaPaca human pancreatic carcinoma cells).

MV-4-11 = assay: Alamar Blue cell proliferation assay, MV-4-11; assay type: cell-based; settings: Homo sapiens
How it was run: (§11)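 Alamar Blue fluorescence, excitation 544 nm and emission 590 nm, was measured in cells treated with drug for about four days at 37° C, with the dye added four hours before reading. Untreated cells and cell-free medium were included on each plate.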

K-562 = assay: Alamar Blue cell proliferation assay, K-562; assay type: cell-based; settings: Homo sapiens
How it was run: as §11

BxPC3 = assay: Alamar Blue cell proliferation assay, BxPC3; assay type: cell-based; settings: Homo sapiens, BXPC-3, BxPC3, Table 5, read-out: AB: BxPC3 IC50
Description: as §1, §2, §3, §4, §5, §6, §7, §8, §9, §10

recombinant human CK2 = target: T1, recombinant human CK2 (Homo sapiens, UniProt P68400); assay: CK2 assay (cell-free, 33P-ATP filter plate); assay type: biochemical; settings: Table 5
T1 construct: purchased Upstate
T1 sequence (P68400 whole entry): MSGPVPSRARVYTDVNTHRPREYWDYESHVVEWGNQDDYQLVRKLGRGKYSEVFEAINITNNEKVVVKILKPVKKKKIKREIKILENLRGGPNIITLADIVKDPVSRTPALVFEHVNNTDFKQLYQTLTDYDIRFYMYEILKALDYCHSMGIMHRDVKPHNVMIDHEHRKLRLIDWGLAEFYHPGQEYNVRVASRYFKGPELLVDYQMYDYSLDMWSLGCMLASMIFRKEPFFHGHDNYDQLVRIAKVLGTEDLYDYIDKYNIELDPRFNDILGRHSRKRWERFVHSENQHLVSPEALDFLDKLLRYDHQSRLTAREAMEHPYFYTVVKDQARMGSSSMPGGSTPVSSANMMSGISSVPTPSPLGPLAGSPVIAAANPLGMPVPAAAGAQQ
T1 sequence (P67870 whole entry partner): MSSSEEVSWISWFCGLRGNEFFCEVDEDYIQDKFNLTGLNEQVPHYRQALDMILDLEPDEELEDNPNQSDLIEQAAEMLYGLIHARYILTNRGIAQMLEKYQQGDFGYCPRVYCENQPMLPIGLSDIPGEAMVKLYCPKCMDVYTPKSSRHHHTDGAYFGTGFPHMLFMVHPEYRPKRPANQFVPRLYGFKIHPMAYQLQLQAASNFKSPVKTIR
How it was run: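 Recombinant human CK2 (25 ng) with RRRDDDSDDD peptide in MOPS pH 7.2 buffer; started with ATP/MgCl2 plus [γ-33P]ATP (75 micromolar ATP in stock solution) for 10 minutes at 30 degrees C. Acid-quenched, captured on phosphocellulose filters, and incorporated radioactivity counted by scintillation.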

recombinant PIM-1 = recombinant PIM-1 (Homo sapiens, UniProt P11309); assay: PIM-1 assay (33P-ATP filter plate); assay type: biochemical; settings: Table 5; read-out: PIM1: IC50
Chain of recombinant PIM-1 (P11309 whole entry): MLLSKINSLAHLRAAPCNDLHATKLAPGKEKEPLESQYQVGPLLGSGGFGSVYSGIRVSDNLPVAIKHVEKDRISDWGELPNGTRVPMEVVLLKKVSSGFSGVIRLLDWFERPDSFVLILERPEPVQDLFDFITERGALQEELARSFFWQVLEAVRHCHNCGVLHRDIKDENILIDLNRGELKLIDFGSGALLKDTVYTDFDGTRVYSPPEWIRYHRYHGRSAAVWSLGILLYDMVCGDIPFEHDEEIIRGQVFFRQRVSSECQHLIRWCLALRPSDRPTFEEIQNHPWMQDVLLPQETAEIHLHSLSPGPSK
Description: The following procedure was used to assay the PIM-1 kinase activity of compounds of the invention. Other methods for assaying PIM-1 and other PIM kinases, as well as methods to assay for activity against the various kinases are known in the art.
In a final reaction volume of 50 ul, recombinant PIM-1 (1 ng) was incubated with 12 mM MOPS pH 7.0, 0.4 mM EDTA, glycerol 1%, brij 35 0.002%, 2-mercaptoethanol 0.02%, BSA 0.2 mg/ml, 100 uM KKRNRTLTK, 10 mM MgAcetate, 15 uM ATP, [γ-^33P-ATP] (specific activity approx. 500 cpm/pmol), DMSO 4% and test inhibitor compound at the required concentration. The reaction was initiated by the addition of the Magnesium ATP mixture. After 40 min incubation at 23° C., the reactions were quenched by the addition of 100 ul 0.75% Phosphoric acid, and the labeled peptide collected by filtration through a phosphocellulose filter plate. The plate was washed 4 times with 0.075% phosphoric acid (100 ul per well) and then, after the addition of scintillation fluid (20 ul per well), the counts were measured by a scintillation counter.

SUM-149PT = assay: Alamar Blue cell proliferation assay, SUM-149PT; assay type: cell-based; settings: Homo sapiens, SUM149PT, Table 5, read-out: AB: SUM-149PT IC50
Description: as §1, §2, §3, §4, §5, §6, §7, §8, §9, §10

MDAMB453 = assay: Alamar Blue cell proliferation assay, MDAMB453; assay type: cell-based; settings: Homo sapiens, MDA-MB-453, MDAMB453, Table 5, read-out: AB: MDAMB453 IC50
Description: as §1, §2, §3, §4, §5, §6, §7, §8, §9, §10

recombinant human PIM2 = recombinant human PIM2 (Homo sapiens, UniProt Q9P1W9); assay: PIM-2 assay (33P-ATP filter plate); assay type: biochemical; settings: Table 5
Chain of recombinant human PIM2 (Q9P1W9 whole entry): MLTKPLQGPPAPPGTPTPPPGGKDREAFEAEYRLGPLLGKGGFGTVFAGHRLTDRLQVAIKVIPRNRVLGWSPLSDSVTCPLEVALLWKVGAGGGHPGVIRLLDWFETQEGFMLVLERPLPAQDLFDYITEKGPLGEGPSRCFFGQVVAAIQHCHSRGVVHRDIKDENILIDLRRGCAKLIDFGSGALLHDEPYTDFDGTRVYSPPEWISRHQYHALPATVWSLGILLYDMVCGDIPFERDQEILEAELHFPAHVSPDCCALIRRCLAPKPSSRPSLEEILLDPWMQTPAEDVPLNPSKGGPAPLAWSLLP
Description: PIM-2 Assay Method: Test compounds dissolved and diluted in DMSO (2 μl) were added to a reaction mixture comprising 10 μl of 5× Reaction Buffer (40 mM MOPS pH 7.0, 5 mM EDTA), 10 μl of recombinant human PIM2 solution (4 ng PIM-2 dissolved in dilution buffer (20 mM MOPS pH 7.0; EDTA 1 mM; 5% Glycerol; 0.01% Brij 35; […]; […] 2-mercaptoethanol; 1 mg/ml BSA)) and 8 ul of water. Reactions were initiated by the addition of 10 ul of ATP Solution (49% (15 mM MgCl2; 75 uM ATP) 1% ([γ-^33P]ATP: Stock 1 mCi/1000; 3000Ci/mmol (Perkin Elmer)) and 10 ul of substrate peptide solution (RSRSSYPAGT, dissolved in water at a concentration of 1 mM), Reactions were maintained for 10 min at 30° C. The reactions were quenched with 100 ul of 0.75% Phosphoric acid, then transferred to and filtered through a Phosphocellulose filter plate (Millipore, MSPH-N6B-50). After washing each well 4 times with 0.75% Phosphoric acid, scintillation fluid (20 uL) was added to each well and the residual radioactivity was measured using a Wallac luminescence counter.

[2] = system: leukemic cells from AML patients; settings: Fedorov et al., PNAS 104(51); cited from earlier work
MOLM-13 (AML) xenograft = MOLM-13 (AML) xenograft model; 2008 AACR Abstract No. 4974; cited from earlier work
MV-4-11 (AML) xenograft = MV-4-11 (AML) xenograft model; 2008 AACR Abstract No. 4974; cited from earlier work
[3] = MV4-11, MV-4-11, Table 5, read-out: AB: MV-4-11 IC50
[4] = K562, K-562, Table 5, read-out: AB: K-562 IC50

Row | pIC50 [1] | pIC50 (MV-4-11; MV4-11, MV-4-11, Table 1, read-out: AB: MV-4-11 IC50) | pIC50 (K-562; K562, K-562, Table 1, read-out: AB: K-562 IC50) | pIC50 (BxPC3) | pIC50 (recombinant human CK2) | pIC50 (MV-4-11; [3]) | pIC50 (recombinant PIM-1) | pIC50 (MDAMB453) | pIC50 (recombinant human PIM2) | pIC50 (K-562; [4]) | SMILES | pIC50 (SUM-149PT) | effect on cell growth and cell death [2] | tumor regression (MOLM-13 (AML) xenograft) | tumor regression (MV-4-11 (AML) xenograft)
1 | < 5.00 | – | – | – | – | – | – | – | – | – | O=C(O)c1cccc(-c2ccc(/C=C3\SC(=S)N(Cc4ccccc4)C3=O)o2)c1 | – | – | – | –
2 | < 5.00 | – | – | – | – | – | – | – | – | – | CN1C(=O)/C(=C/c2ccc(-c3cccc(C(=O)O)c3)o2)SC1=S | – | – | – | –
3 | < 5.00 | < 5.00 | < 5.00 | – | – | – | – | – | – | – | O=C1NC(=S)S/C1=C\c1ccc(-c2cccc(C(=O)O)c2)o1 | – | – | – | –
4 | – | – | – | 5.36 | > 7.30 | 5.99 | > 7.30 | 5.91 | > 7.30 | 5.54 | O=C1NC(=O)/C(=C\c2ccc(F)c(-c3cncc(N4CCCNCC4)n3)c2)S1 | 5.63 | – | – | –
5 | – | – | – | 5.62 | > 7.30 | 6.79 | > 7.30 | 6.28 | 7.30 | 6.73 | CN1CCCN(c2cncc(-c3cc(/C=C4\SC(=S)NC4=O)ccc3F)n2)CC1 | 6.50 | – | – | –
6 | – | – | – | < 4.52 | 7.04 | 5.52 | > 7.30 | 4.74 | > 7.30 | < 4.52 | CN1CCCN(c2cncc(-c3cc(/C=C4\SC(=O)NC4=O)ccc3Cl)n2)CC1 | < 4.52 | – | – | –
7 | – | – | – | 5.17 | > 7.30 | 6.71 | > 7.30 | 5.93 | > 7.30 | 6.57 | CN1CCCN(c2cncc(-c3cc(/C=C4\SC(=O)NC4=O)ccc3F)n2)CC1 | 5.81 | – | – | –
8 | – | – | – | < 4.52 | 7.97 | 5.03 | > 7.30 | 4.55 | > 7.30 | < 5.00 | CN1CCCN(c2cncc(-c3cncc(/C=C4\SC(=O)NC4=O)c3)n2)CC1 | < 4.52 | – | – | –
9 | – | – | – | 4.79 | > 7.30 | 5.66 | > 7.30 | 4.65 | > 7.30 | 5.01 | Cc1ccc(-c2cncc(N3CCCN(C)CC3)n2)cc1/C=C1\SC(=S)NC1=O | 4.59 | – | – | –
10 | – | – | – | 4.59 | 7.30 | 5.43 | > 7.30 | 4.81 | 7.30 | 5.18 | Cc1ccc(-c2cncc(N3CCCN(C)CC3)n2)cc1/C=C1\SC(=O)NC1=O | 5.06 | – | – | –
11 | – | – | – | – | – | – | – | – | – | – | CN(C)C[C@@H]1CCn2cc(c3ccccc32)C2=C(C(=O)NC2=O)c2cn(c3ccccc23)CCO1 [Ly5333′531] | – | suppressed cell growth and induced cell death | – | –
12 | – | – | – | – | – | – | – | – | – | – | CN1CCC(CNc2ccc3ncc(-c4cccc(OC(F)(F)F)c4)n3n2)CC1 [SGI-1776] | – | – | significant tumor regression | significant tumor regression
